Experimental findings from ChEMBL document CHEMBL5096178, “Synthesis and Biological Evaluation of Natural-Product-Inspired, Aminoalkyl-Substituted 1-Benzopyrans as Novel Antiplasmodial Agents” (J Med Chem, 2021) are described below.

≈ marks a conversion by molar mass, not a printed value.

In data set [1] the test system is Plasmodium falciparum. Description: Antimalarial activity against chloroquine-sensitive Plasmodium falciparum D6 assessed as parasite growth inhibition by [3H]hypoxanthine growth inhibition assay. In kind it is functional, organism-based.
In data set [2] the test system is Plasmodium falciparum. Description: Antimalarial activity against drug-sensitive Plasmodium falciparum 3D7 assessed as parasite growth inhibition incubated for 48 hrs by [3H]hypoxanthine incorporation assay. Format: functional, organism-based.
The next data set relates to Leishmania donovani. Description: Antiprotozoal activity against Leishmania donovani MHOM/ET/67/L82 axenic amastigote assessed as parasite growth inhibition incubated for resazurin dye based fluorometry. Format: functional, organism-based.
Data set [3] can be described thus: Displacement of [3H]-(+)-pentazocine from Sigma1 receptor derived from pig brain assessed as inhibition constant measured after 120 mins by scintillation counter analysis. Format: tissue-based, Sus scrofa.
The nature of data set [4]: Drug concentration in plasma of NMRI mouse infected with GFP-transfected Plasmodium berghei ANKA administered orally for 4 consecutive days measured after 1 hr by LC-MS analysis. In kind it is ADME. The note with it: po, 97 h.
A short description of data set [5]: Drug metabolism in NMRI mouse infected with GFP-transfected Plasmodium berghei ANKA assessed as 2,2-dimethyl-6-((3-phenylpropylamino)methyl)chroman-7-ol metabolite formation administered intraperitoneally for 4 consecutive days measured after 1 hr by LC-MS analysis. Format: ADME. The note with it: in vivo, ip, 97 h.
Data set [6] can be described thus: Drug metabolism in mouse liver microsomes assessed as (2R,3R,4S,5S,6R)-2-(2,2-dimethyl-6-((3-phenylpropylamino)methyl)chroman-7-ylperoxy)-6-(hydroxymethyl)tetrahydro-2H-pyran-3,4,5-triol metabolite formation incubated for 90 mins in presence of NADPH/UDPGA by LC-MS analysis. Format: ADME, Microsome. The note with it: 1.5 h.
Data set [7] can be described thus: Selectivity index, ratio of IC50 for rat L6 cells to IC50 for Trypanosoma cruzi Tulahuen C4 intracellular amastigote infected in rat L6 cells. Format: toxicity, cell-based. The following applies: read-out: Ratio IC50.
Data set [8] can be described thus: Drug metabolism in NMRI mouse infected with GFP-transfected Plasmodium berghei ANKA assessed as (2R,3R,4S,5S,6R)-2-(2,2-dimethyl-6-((3-phenylpropylamino)methyl)chroman-7-ylperoxy)-6-(hydroxymethyl)tetrahydro-2H-pyran-3,4,5-triol metabolite formation administered orally for 4 consecutive days measured after 1 hr by LC-MS analysis. The note with it: in vivo, po, 97 h. In kind it is ADME.

Data set [9] deals with Plasmodium falciparum. Put plainly: Inhibition of Plasmodium falciparum DHODH using DCIP as substrate at 50 uM relative to control.
A short description of data set [10]: Drug metabolism in mouse liver microsomes assessed as 2,2-dimethyl-6-((3-phenylpropylamino)methyl)chroman-7-ol metabolite formation incubated for 90 mins in presence of NADPH/UDPGA by LC-MS analysis. In kind it is ADME, Microsome. The following applies: 1.5 h.
The nature of data set [11]: Selectivity index, ratio of IC50 for rat L6 cells to IC50 for Leishmania donovani MHOM/ET/67/L82 axenic amastigote. Format: toxicity. The note with it: read-out: Ratio IC50.
In the next data set the test system is Trypanosoma cruzi. Put plainly: Antiprotozoal activity against Trypanosoma cruzi Tulahuen C4 intracellular amastigote infected in rat L6 cells assessed as parasite growth inhibition incubated for 96 hrs in presence of CPRG/Nonidet by photometry. Format: functional, organism-based. The note with it: Tulahuen C4, L6, 96 h.
Data set [12] is described as follows: Selectivity index, ratio of IC50 for rat L6 cells to IC50 for Trypanosoma brucei rhodesiense STIB 900 bloodstream trypomastigote. Format: toxicity. The following applies: read-out: Ratio IC50.
Data set [13] relates to Plasmodium falciparum. Put plainly: Antiprotozoal activity against erythrocytic stage Plasmodium falciparum NF54 assessed as parasite growth inhibition incubated for 48 hrs by [3H]hypoxanthine incorporation assay. In kind it is functional, organism-based.
Data set [14] can be described thus: Drug concentration in plasma of NMRI mouse infected with GFP-transfected Plasmodium berghei ANKA administered intraperitoneally for 4 consecutive days measured after 1 hr by LC-MS analysis. In kind it is ADME. The following applies: ip, 97 h.
Data set [15] can be described thus: Selectivity index, ratio of IC50 for rat L6 cells to IC50 for erythrocytic stage Plasmodium falciparum NF54. In kind it is toxicity. The following applies: read-out: Ratio IC50.
The nature of data set [16]: Drug metabolism in NMRI mouse infected with GFP-transfected Plasmodium berghei ANKA assessed as (2R,3R,4S,5S,6R)-2-(2,2-dimethyl-6-((3-phenylpropylamino)methyl)chroman-7-ylperoxy)-6-(hydroxymethyl)tetrahydro-2H-pyran-3,4,5-triol metabolite formation administered intraperitoneally for 4 consecutive days measured after 1 hr by LC-MS analysis. The following applies: in vivo, ip, 97 h. In kind it is ADME.

The subject of data set [17] is Plasmodium berghei. Description: Antiplasmodial activity against GFP-transfected Plasmodium berghei ANKA infected in NMRI mouse assessed as parasitemia reduction at 60 mg/kg, po administered for 4 consecutive days measured after 24 hrs by FACS analysis relative to control. In kind it is functional. Further details: scale not given: the % may be the effect or the level left; call rule not given here.

A short description of data set [18]: Drug metabolism in NMRI mouse infected with GFP-transfected Plasmodium berghei ANKA assessed as glucuronic acid conjugated metabolite formation administered intraperitoneally for 4 consecutive days measured after 1 hr by LC-MS analysis. In kind it is ADME. The note with it: in vivo, ip, 97 h.
Data set [19] can be described thus: Drug metabolism in mouse liver microsomes assessed as glucuronic acid conjugated metabolite formation incubated for 90 mins in presence of NADPH/UDPGA by LC-MS analysis. Format: ADME, Microsome. The note with it: 1.5 h.
Data set [20] can be described thus: Cytotoxicity against rat L6 cells assessed as cell growth inhibition incubated for 70 hrs by Alamar Blue staining based […]. Format: toxicity.
In data set [21] the test system is Plasmodium falciparum. Description: Inhibition of Plasmodium falciparum DHODH using DCIP as substrate at 10 uM relative to control.
In data set [22] the test system is Plasmodium falciparum. Description: Inhibition of Plasmodium falciparum DHODH assessed as residual activity using DCIP as substrate at 10 uM relative to control.
The test system of data set [23] is Trypanosoma brucei rhodesiense. Description: Antiprotozoal activity against Trypanosoma brucei rhodesiense STIB 900 bloodstream trypomastigote assessed as parasite growth inhibition incubated for 70 hrs by resazurin dye based assay. The following applies: STIB 900, 70 h. In kind it is functional, organism-based.
The nature of data set [24]: Drug metabolism in NMRI mouse infected with GFP-transfected Plasmodium berghei ANKA assessed as 2,2-dimethyl-6-((3-phenylpropylamino)methyl)chroman-7-ol metabolite formation administered orally for 4 consecutive days measured after 1 hr by LC-MS analysis. Format: ADME. The note with it: in vivo, po, 97 h.
Data set [25] relates to Plasmodium berghei. Put plainly: Antiplasmodial activity against GFP-transfected Plasmodium berghei ANKA infected in NMRI mouse assessed as parasitemia reduction at 30 mg/kg, ip administered for 4 consecutive days measured after 24 hrs by FACS analysis relative to control. Format: functional. Also on record: scale not given: the % may be the effect or the level left.
A short description of data set [26]: Drug metabolism in NMRI mouse infected with GFP-transfected Plasmodium berghei ANKA assessed as glucuronic acid conjugated metabolite formation administered orally for 4 consecutive days measured after 1 hr by LC-MS analysis. Format: ADME. The note with it: in vivo, po, 97 h.
Data set [27] deals with Plasmodium falciparum. Put plainly: Inhibition of Plasmodium falciparum DHODH assessed as residual activity using DCIP as substrate at 50 uM relative to control.

For the compound `CCCCNCc1cc(C(C)(C)C)cc(-c2cnc(C(F)(F)F)c(F)c2)c1O`, the 50% inhibitory concentration (IC50) in the data set with Plasmodium falciparum [1] turned out to be 9 nM.
Regarding `CC(C)(C)c1cc(O)c(CN)c(C(C)(C)C)c1`, the IC50 with Plasmodium falciparum [2] was determined as 30 µg/mL (≈ 127 µM).
With `CC1(C)CCc2cc(CNCCCc3ccccc3)c(O)cc2O1`, the IC50 in the data set on Leishmania donovani is 134000 nM; with Trypanosoma cruzi, 15000 nM; in the data set on Plasmodium falciparum [13] it was 38 nM; in [23], 410 nM. The Ki in data set [3] turned out to be 74 nM. The Drug uptake result in data set [4] and in data set [14] was “Active” each time. In addition, the Drug metabolism entry in data set [5], in data set [6], in [8], in [10], in data set [16] and in data set [18] was “Metabolite_Detected” each time. For the same compound, the Drug metabolism result in data set [19], in [24] and in data set [26] was “Metabolite_Detected” each time. The selectivity ratio was 0.4 in data set [7], 0.05 in data set [11], 14 in data set [12] and 171 in data set [15]. The inhibition with Plasmodium falciparum [9] was 1%; in the data set with Plasmodium falciparum [21] it was 3%. In addition, the Activity in the data set with Plasmodium berghei [17] was determined as 74%; in the data set with Plasmodium falciparum [22], 106%; in the data set on Plasmodium berghei [25], 66%; in the data set with Plasmodium falciparum [27], 90%. The IC50 at 70 h in data set [20] was found to be 6500 nM.
